Source: patent US7153676B1, “Transacylases of the paclitaxel biosynthetic pathway” (priority 1999, dated 2006)
Several values for one entry are separate records, joined by “and”; a condition that tells them apart may be missing. Equal entries are not always repeated.

Legend:
[1] = biological target: T1, 10-deacetylbaccatin III-10-O-acetyl transferase (TAX6) (Taxus cuspidata, UniProt Q9M6E2); assay type: biochemical; conditions: for conversion/acetylation of substrate by TAX6: 10-hydroxyl of 10-deacetylbaccatin III, 5α-hydroxyl of taxadienol
T1 construct: to amplify the putative full-length acetyl transferase gene and incorporate NdeI and XbaI restriction sites; made in house; host or cells: E. coli JM109 (pCWori+)
T1 sequence (Q9M6E2 1-440): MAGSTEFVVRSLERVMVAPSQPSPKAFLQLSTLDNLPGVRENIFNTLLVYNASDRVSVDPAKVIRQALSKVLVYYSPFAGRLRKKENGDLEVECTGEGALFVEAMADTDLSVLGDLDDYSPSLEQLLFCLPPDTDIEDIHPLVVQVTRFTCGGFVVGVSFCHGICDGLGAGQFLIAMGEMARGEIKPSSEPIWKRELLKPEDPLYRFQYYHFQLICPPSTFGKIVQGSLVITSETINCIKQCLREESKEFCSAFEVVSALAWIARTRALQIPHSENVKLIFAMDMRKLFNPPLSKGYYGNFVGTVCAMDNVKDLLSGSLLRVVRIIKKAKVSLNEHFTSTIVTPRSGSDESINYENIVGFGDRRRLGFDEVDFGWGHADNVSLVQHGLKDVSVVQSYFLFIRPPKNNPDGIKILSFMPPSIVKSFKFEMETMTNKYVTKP
Experimental: For the enzyme preparation, E. coli cells transformed with the pCWori+ vector harboring the putative DBAT gene were grown overnight at 37° C. in 5 mL Luria-Bertani medium supplemented with ampicillin, and 1 mL of this inoculum was added to and grown in 100 mL Terrific Broth culture medium (6 g bacto-tryptone, Difco Laboratories, Spark, Md., 12 g yeast extract, EM Science, Cherryhill, N.J., and 2 mL gycerol in 500 mL water) supplemented with 1 mM IPTG, 1 mM thiamine HCl and 50 μg ampicillin/mL. After 24 hours, the bacteria were harvested by centrifugation, resuspended in 20 mL of assay buffer (25 mM Mopso, pH 7.4) and then disrupted by sonication at 0–4° C. The resulting homogenate was centrifuged at 15,000 g to remove debris, and a 1 mL aliquot of the supernatant was incubated with 10-deacetylbaccatin III (400 μM) and [2-^3H]acetyl coenzyme A (0.45μCi, 400 μM) for 1 hour at 31° C. The reaction mixture was extracted with ether and the solvent concentrated in vacuo. The crude product (pooled from five such assays) was purified by silica gel thin-layer chromatography (TLC; 70:30 ethyl acetate:hexane).
The activity of TAX6 (SEQ ID NO: 45) was assayed under standard conditions described in Walker et al., Arch. Biochem. Biophys.

[2] = tested on: acetyl CoA:taxadien-5α-ol O-acetyl transacylase; conditions: cited from earlier work; for acetylation by the enzyme (substrate selectivity): more advanced paclitaxel precursors; for Km: cosubstrate of the taxadienol acetyl transacylase

| SMILES | conversion/acetylation of substrate by TAX6 [1] | acetylation by the enzyme (substrate selectivity) [2] | Km [2] | further results |
| --- | --- | --- | --- | --- |
| CC(=O)O[C@@]12CO[C@@H]1C[C@H](O)[C@@]1(C)C(=O)[C@H](O)C3=C(C)[C@@H](O)C[C@@](O)([C@@H](OC(=O)c4ccccc4)[C@H]21)C3(C)C [10-deacetylbaccatin III] | catalyze the conversion | does not acetylate | – | Km [1]: 10 µM; acetylation of the 1β-, 7β-, or 13α-hydroxyl groups by TAX6 ([1]; regioselectivity): does not acetylate |
| CC(C)(COP(=O)(O)OP(=O)(O)OC[C@H]1O[C@@H](n2cnc3c(N)ncnc32)[C@H](O)[C@@H]1OP(=O)(O)O)[C@@H](O)C(=O)NCCC(=O)NCCS [Co-enzyme A] | – | – | – | inhibition of the enzyme [2]: only weakly inhibited |
| CC(=O)SCCNC(=O)CCNC(=O)[C@H](O)C(C)(C)COP(=O)(O)OP(=O)(O)OC[C@H]1O[C@@H](n2cnc3c(N)ncnc32)[C@H](O)[C@@H]1OP(=O)(O)O [acetyl CoA] | – | – | 5.5 µM and 6 µM | – |
| CC(=O)O[C@H]1C(=O)[C@@]2(C)[C@H]([C@H](OC(=O)c3ccccc3)[C@]3(O)C[C@H](O)C(C)=C1C3(C)C)[C@]1(OC(C)=O)CO[C@@H]1C[C@@H]2O [baccatin III] | – | does not acetylate | – | – |
| C=C1[C@H]2C[C@@H]3CCC(C)=C(CC[C@]2(C)CC[C@@H]1O)C3(C)C [taxadienol, taxa-4(20),11(12)-dien-5α-ol] | nor does it acetylate | – | 4.2 µM and 4 µM | – |
